Data reported in patent US20210300859A1, “ROSMARINIC ACID DERIVATIVE OR SALT THEREOF” (KAO CORPORATION, priority 2018, published 2021).

Target: T1, human TRPV4 (Homo sapiens, UniProt Q9HBA0)
T1 construct: expressed in transfected cells; host or cells: HeLa cells, transient transfection with a pcDNA 3.1 Directional TOPO vector
Assay: Evaluation of TRPV4 activity-inhibiting action: intracellular calcium ion influx rate in human TRPV4-expressing HeLa cells stimulated with GSK1016790a (Fluo 4)
Assay type: cell-based
Settings: for Intracellular Ca^2+ influx rate (%): GSK + DMSO defined as 100%, n = 3, Mean ± S.E.; for calcium ion influx into cells by a TRPV4 agonist (result in words): concentration-dependent, 100 and 300 μM, vs GSK1016790a + DMSO, Dunnett's test
Description: HeLa cells were cultured using a DMEM/F12 medium containing 10% fetal bovine serum. The HeLa cells were seeded in a T-75 cell culture flask at 5×10^5 cells/flask. The cells were cultured for 3 days, were then transfected with the human TRPV4 gene expression vector (8 μg) produced in the above (2) using TransIT-HeLaMONSTER Transfection Kit, and were cultured for 1 day.
The cells were detached with Detachin, were seeded in a 96-well optical bottom plate containing a DMEM/F12 medium containing 10% fetal bovine serum at a cell density of 1.5×10^4 cells/90 μL/well, and were further cultured for 1 day.
The intracellular calcium ion influx rate was measured using Calcium Kit II-fluo 4. Loading buffer containing Fluo 4-AM and Hanks' balanced salt solution were mixed at 1:1 and were then added to the human TRPV4-expressing cells produced in the above (3) at 180 μL/well, followed by incubation at 37° C. for 1 hour. Subsequently, the fluorescence intensity (excitation wavelength: 488 nm, fluorescence wavelength: 524 nm) was measured every 2 seconds at 37° C. using a fluorescence plate reader FDSS3000 (Hamamatsu Photonics K.K.). 30 seconds after the start of the measurement, GSK1016790a as a TRPV4 agonist and the 4-O-methyl-rosmarinic acid or 3,4′-di-O-methyl-rosmarinic acid solution prepared in the above Manufacturing Example as a sample were each diluted with Hanks' balanced salt solution, and a mixture solution thereof (mixed immediately before the addition) was added at 20 μL/well. The change in fluorescence intensity was measured every 2 seconds for 300 seconds. GSK1016790a was added to give a final concentration of 3 nM.
In addition, as a positive control for TRPV4 activity inhibition, HC067047, which is a TRPV4 antagonist, was added at a final concentration of 10 μM. 4-O-Methyl-rosmarinic acid, 3,4′-di-O-methyl-rosmarinic acid, GSK1016790a, and HC067047 were all used by dissolving in dimethyl sulfoxide (DMSO).
The TRPV4 activity of a sample was calculated by the following expression, and the intracellular calcium ion influx rate due to the treatment with a TRPV4 agonist, GSK1016790a, was defined as 100%.
Intracellular calcium ion influx rate (%)=[(F max/F0)−(F max C2/F0C2)]/[(F max C1/F0C1)−(F max C2/F0C2)]×100
F max: Maximum fluorescence intensity of the well containing GSK1016790a and a sample in the period from 0 to 300 seconds after the start of the measurement,
F max C1: Maximum fluorescence intensity of the well containing GSK1016790a and a solvent in the period from 0 to 300 seconds after the start of the measurement,
F max C2: Maximum fluorescence intensity of the well containing only a solvent in the period from 0 to 300 seconds after the start of the measurement,
F0: Fluorescence intensity of the well of F max immediately after the start of the measurement,
F0C1: Fluorescence intensity of the well of F max C1 immediately after the start of the measurement, and
F0C2: Fluorescence intensity of the well containing only a solvent immediately after the start of the measurement.
The intracellular calcium ion influx rate (each group, n=3) when a sample was added was compared to that when GSK1016790a and a solvent (DMSO) were added and was examined by a Dunnett's test. […] The results are expressed as the mean value (Mean)±standard error (S.E.).

[1] = sample 100 μM with GSK1016790a 3 nM
[2] = sample 300 μM with GSK1016790a 3 nM

T1 sequence (Q9HBA0 whole entry): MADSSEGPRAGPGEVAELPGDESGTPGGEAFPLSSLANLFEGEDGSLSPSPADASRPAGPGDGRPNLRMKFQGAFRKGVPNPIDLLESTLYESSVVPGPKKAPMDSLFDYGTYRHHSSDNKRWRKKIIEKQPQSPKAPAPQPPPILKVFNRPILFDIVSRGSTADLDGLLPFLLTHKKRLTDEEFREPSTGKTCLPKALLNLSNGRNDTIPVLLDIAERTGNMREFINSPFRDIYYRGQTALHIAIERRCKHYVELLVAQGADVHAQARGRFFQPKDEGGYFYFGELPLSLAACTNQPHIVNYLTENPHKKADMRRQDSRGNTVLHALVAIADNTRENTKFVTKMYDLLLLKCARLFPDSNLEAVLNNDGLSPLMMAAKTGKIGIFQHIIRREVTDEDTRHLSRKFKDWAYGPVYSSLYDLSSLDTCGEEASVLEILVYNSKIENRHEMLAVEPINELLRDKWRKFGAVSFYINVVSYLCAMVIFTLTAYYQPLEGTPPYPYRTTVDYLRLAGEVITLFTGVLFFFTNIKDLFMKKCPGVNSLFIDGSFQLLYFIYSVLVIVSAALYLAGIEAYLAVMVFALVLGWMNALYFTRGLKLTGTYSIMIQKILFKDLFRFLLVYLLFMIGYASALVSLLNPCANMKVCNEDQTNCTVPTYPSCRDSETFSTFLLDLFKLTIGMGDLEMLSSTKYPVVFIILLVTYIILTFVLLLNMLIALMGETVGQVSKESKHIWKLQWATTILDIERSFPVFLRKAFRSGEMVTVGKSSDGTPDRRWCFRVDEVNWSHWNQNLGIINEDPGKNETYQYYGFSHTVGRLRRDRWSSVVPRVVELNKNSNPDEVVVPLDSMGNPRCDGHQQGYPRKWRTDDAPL

Row | calcium ion influx into cells by a TRPV4 agonist (result in words) | Intracellular Ca^2+ influx rate (%) [1] | Intracellular Ca^2+ influx rate (%) [2] | SMILES | Intracellular Ca^2+ influx rate (%) (sample 10 μM with GSK1016790a 3 nM)
1 |  |  |  | Cc1c(C(=O)Nc2cccc(C(F)(F)F)c2)cc(-c2ccccc2)n1CCCN1CCOCC1 [HC067047, reference compound] | 2.46 ± 0.14 (P < 0.001) %
2 | significantly decreased | 92.65 ± 0.89 (N.S.) % | 82.90 ± 3.04 (P < 0.01) % | COc1ccc(CC(OC(=O)/C=C/c2ccc(O)c(O)c2)C(=O)O)cc1O (stereo not shown) [4-Me-RA, (E)-3-(3-hydroxy-4-methoxyphenyl)-2-{[3-(3,4-dihydroxyphenyl)acryloyl]oxy}propionic acid] | 
3 | significantly decreased | 78.81 ± 1.73 (P < 0.001) % | 71.25 ± 5.52 (P < 0..001) % | COc1ccc(/C=C/C(=O)OC(Cc2ccc(O)c(OC)c2)C(=O)O)cc1O (stereo not shown) [3,4′-DiMe-RA, (E)-3-(4-hydroxy-3-methoxyphenyl)-2-{[3-(3-hydroxy-4-methoxyphenyl)acryloyl]oxy}propionic acid] | 
